# Data published in patent publication US20050026810A1, “Treatment of male sexual dysfunction” (Pfizer Inc., priority 2003, published 2005).
# “And” between values parts separate entries of the source, which are not always exact repeats. Equal values may be shown once.
# How the values were obtained:
# [1] = system: PCA-induced ejaculation in anaesthetised rats; assay: p-chloroamphetamine (PCA)-induced ejaculation and penile erection in anaesthetised rats; type: in vivo, rat
# Protocol: In order to study penile; erection and ejaculation the method used was based on the methodology taught in Yonezawa et al. (2000) Life Sciences 67, 3031-3039. For ease of reference, this methodology is described below:
# Male Sprague Dawley rats, weighing 350-450 g, are used. Prior to the experiments the animals are housed in groups (2 rats per cage) under controlled 12 h light-dark cycle (lights on at 07:00), constant temperature (23±1° C.) and humidity (55±5%). They have free access to standard food pellets and water.
# Rats are anesthestised with sodium pentobarbitone (50 mg/kg, i.p.) and are placed in the supine position. The penis is extruded from its sheath and gently held by a wooden applicator positioned at the base of the penis. The test compounds are administered by intravenous infusion and p-chloroamphetamine (PCA) (5-10 mg/kg) is administered i.p. immediately before the sheath retraction and the penile responses, including penile erection, redding and expansion of the penile body, glans erection, engorgement and slight flaring of the glans and cup, glans erection with intense flaring of the glans, are recorded. Latencies from PCA administration to the initial penile response and ejaculation is also measured in seconds.
# The effect of a test compound on p-chloroamphetamine (PCA) induced ejaculation is also assessed by weighing the ejaculates accumulated over 30 mins. A suitable method using conscious rats is described in Renyi (1985) Neuropharmacology, Vol. 24. No. 8, pp 697-704.
# [2] = molecular target: oxytocin receptors; details: read-out: OT; cited from earlier work
# [3] = molecular target: vasopressin V1a receptors (Rattus norvegicus, UniProt P30560); details: cited from earlier work
# [4] = Plasma concentration in the copulatory behaviour study; type: in vivo, rat; details: 0.05 mgkg^-1 sc, rats
# [5] = system: copulatory behaviour in conscious rats; assay: Copulatory behaviour in conscious rats (ejaculatory latency); type: in vivo, rat; details: 0.05 mgkg^-1 sc
# Protocol: For all the sexual behavour tests, the male rats were placed in an observation arena (50-60 cm diameter), starting 5 hours into the dark cycle and observed under red ilumination. Three to four minutes after placing the male in the arena, a receptive female (ovariectomised, oestradiol benzoate/progesterone injection 48 hour before behavioural study) was introduced into the arena and the following parameters noted: • i) ejaculatory latency (EJL; time taken from addition of receptive female into the arena to ejaculation); • ii) copulatory efficiency (CE; ejaculatory latency/the number of ihtromissions to ejaculation, i.e. the number of seconds between intromissions); • iii) intromission frequency (IF; the number of intromissions to ejaculation); • iv) mount frequency (MF; the number of mounts to ejaculation); • v) post ejaculatory interval (PEI; the time taken from ejaculation to the commencement of copulatory behaviour).
# Rodent copulatory behaviour is characterised by a series of mounts, with and without vaginal insertion (50-80% of mounts result in intromission [vaginal penetration]) and ejaculation occurs after 6 to 12 intromissions. Each intromission lasts a matter of seconds—it is not possible to quantify intromission length i.e. intravaginal latency. The effect of L-371257 was assessed on a number of copulatory parameters (see above). We have focused ejaculatory latency as a clinical biomarker of time taken to achieve ejaculation.
# Sequence of vasopressin V1a receptors (P30560 whole entry): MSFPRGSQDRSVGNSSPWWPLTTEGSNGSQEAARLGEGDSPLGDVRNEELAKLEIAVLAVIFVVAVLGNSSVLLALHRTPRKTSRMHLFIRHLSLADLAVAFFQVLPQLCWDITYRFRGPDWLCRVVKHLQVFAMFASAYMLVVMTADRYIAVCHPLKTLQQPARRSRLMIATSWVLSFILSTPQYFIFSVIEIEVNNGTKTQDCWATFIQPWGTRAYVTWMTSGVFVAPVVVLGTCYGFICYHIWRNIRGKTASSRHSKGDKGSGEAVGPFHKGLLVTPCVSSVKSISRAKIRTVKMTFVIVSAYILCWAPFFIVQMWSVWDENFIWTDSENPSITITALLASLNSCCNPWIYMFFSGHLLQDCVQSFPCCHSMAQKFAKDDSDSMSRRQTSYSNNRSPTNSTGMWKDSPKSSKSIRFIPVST
SMILES,"time taken for the rats to achieve erection ([1]; anaesthetised rats, PCA)","Ejaculation delayed (near maximal effect) ([1]; free plasma concentration 30.9 nM, intravenous infusion, anaesthetised rats) [%]","ejaculation and penile erection, in words ([1]; plasma conc 11.4 nM and 30.9 nM)","effect on PCA-induced ejaculation ([1]; plasma concentration of 9-31 nM, anaesthetised rats)",Ki [2] [nM],Ki [3] [nM],Plasma conc [4] [nM],other effects on copulatory behaviour [5],increase of ejaculatory latency ([5]; P<0.05 vs vehicle) [%],"Ejaculatory latency ([5]; plasma conc ~30 nM, mean ± sem, n = 8)"
"COC1CCN(Cc2nnc(C3CCN(c4ccccn4)CC3)n2Cc2ccccc2)CC1 [Compound 1, 4-[4-Benzyl-5-(4-methoxy-piperidin-1-ylmethyl)-4H-[1,2,4]triazol-3-yl]-3,4,5,6-tetrahydro-2H-[1,2′]bipyridinyl]",not significantly affected,100,* At both of these concentrations Compound 1 delayed ejaculation without affecting penile erection.,significantly delayed,,,,,,
"COc1cc(OC2CCN(C(C)=O)CC2)ccc1C(=O)N1CCC(N2C(=O)OCc3ccccc32)CC1 [L-371,257]",,,,,19,3.7,~30,no other significant effects,67,266 s and 266.4 ± 30.9 s
